One may read the melting point as the temperature of the solid-liquid transition.

The test system of series [1] is Puccinia recondita f. Sp. Tritici. Briefly: Puccinia recondita f. sp. tritici / wheat / leaf disc preventative (brown rust). It counts as in vivo. The conditions noted are these: foliar, 168 h, 200 ppm in the applied formulation, wheat leaf segments cv. Kanzler, preventative, inoculated 1 day after application, assessed 7 to 9 days after application, vs untreated, read-out: disease control. In outline:
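Preventative leaf-segment test: spray application of diluted formulated compound on wheat cv. Kanzler, spore inoculation after 1 day. Percent control relative to untreated segments rated 7 to 9 days post-application, with incubation at 19° C, 75% relative humidity, 12 h photoperiod.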

Series [2] relates to Glomerella Lagenarium (Colletotrichum Lagenarium). Briefly: Glomerella lagenarium (Colletotrichum lagenarium) liquid culture / cucumber / preventative (anthracnose). As to conditions: Colletotrichum orbiculare; 20 ppm in the applied formulation; liquid culture in PDB, 24° C., inhibition of growth measured photometrically 3 to 4 days after application, vs untreated; read-out: disease control. It is filed as cell-based. In outline: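 Conidia from cryogenic storage were mixed into potato dextrose broth. This was added to compound diluted from DMSO into 0.025% Tween20, tested at 20 ppm. Plates were incubated in the dark at 24 °C and 96% relative humidity, and growth was read photometrically after 2–7 days as % activity versus untreated check.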

Series [3] concerns Phakopsora pachyrhizi. Briefly: Phakopsora pachyrhizi / soybean / leaf disc preventative (Asian soybean rust). It counts as in vivo. As to conditions: foliar, 288 h, 200 ppm in the applied formulation, soybean leaf disks, inoculated one day after application, assessed 12 to 14 days after application, vs untreated, read-out: disease control. Put shortly:
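Read-out is percent disease control relative to untreated check discs, assessed once untreated discs show adequate disease, 12 to 14 days after application. Compounds, tested at 200 ppm in the applied formulation, are sprayed onto soybean leaf discs one day before inoculation with a spore suspension.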

Series [4] relates to Puccinia recondita f. Sp. Tritici. As to the kind of experiment: Puccinia recondita f. sp. tritici / wheat / leaf disc curative (brown rust). It counts as in vivo. The conditions noted are these: foliar, 144 h, 200 ppm in the applied formulation, wheat leaf segments cv. Kanzler, applied 1 day after inoculation, assessed 6 to 8 days after application, vs untreated, read-out: disease control. In outline:
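Segments of wheat (cultivar Kanzler) sit on agar and are spore-inoculated first; after one day in darkness at 19° C and 75% RH the diluted formulated compound is sprayed on. A 12 h photoperiod follows at the same temperature and humidity before disease is scored against untreated controls.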

Some results are limits rather than exact numbers.

Take `CCc1cccc(CC)c1-n1ncc(-c2cn(Cc3ccc(-c4noc(C(F)(F)F)n4)cc3)nn2)c1C` [Compound 1.31, 3-[4-[[4-[1-(2,6-diethylphenyl)-5-methyl-pyrazol-4-yl]triazol-1-yl]methyl]phenyl]-5-(trifluoromethyl)-1,2,4-oxadiazole]: the melting point is 157.6 to 161.9 °C.
`COC(=O)c1ncn(Cc2ccc(-c3noc(C(F)(F)F)n3)cc2)n1` [Compound 1.37, methyl 1-[[4-[5-(trifluoromethyl)-1,2,4-oxadiazol-3-yl]phenyl]methyl]-1,2,4-triazole-3-carboxylate] returned a melting point of 174 to 177.2 °C. For the same molecule, the pest or weed control at 200 ppm in series [1] is ≥ 80%. Moreover, in series [2], the inhibition of growth at 20 ppm was ≥ 80%.
As to `FC(F)(F)c1ncn(Cc2ccc(-c3noc(C(F)(F)F)n3)cc2)n1` [Compound 1.39], the melting point fell in the range of 68.2 to 70.1 °C.
`N#Cc1ncnn1Cc1ccc(-c2noc(C(F)(F)F)n2)cc1` [Compound 1.41, 2-[[4-[5-(trifluoromethyl)-1,2,4-oxadiazol-3-yl]phenyl]methyl]-1,2,4-triazole-3-carbonitrile] gave a melting point of 120 to 124 °C.
With `CN(C)C(=O)c1cnn(Cc2ccc(-c3noc(C(F)(F)F)n3)cc2)c1` [Compound 1.149, N,N-dimethyl-1-[[4-[5-(trifluoromethyl)-1,2,4-oxadiazol-3-yl]phenyl]methyl]pyrazole-4-carboxamide], the melting point lay in the range of 124 to 129 °C.
Molecule `CNC(=O)c1cnn(Cc2ccc(-c3noc(C(F)(F)F)n3)cc2)c1` [Compound 1.150, N-methyl-1-[[4-[5-(trifluoromethyl)-1,2,4-oxadiazol-3-yl]phenyl]methyl]pyrazole-4-carboxamide] registered a melting point of 156 to 161 °C.
The same measure, in the same setting: then `COC(=O)c1cnn(Cc2ccc(-c3noc(C(F)(F)F)n3)cc2)c1` [Compound 1.248, methyl 1-[[4-[5-(trifluoromethyl)-1,2,4-oxadiazol-3-yl]phenyl]methyl]pyrazole-4-carboxylate], with 122 to 129 °C.
On to `COCCNC(=O)c1cnn(Cc2ccc(-c3noc(C(F)(F)F)n3)cc2)c1` [Compound 1.250, N-(2-methoxyethyl)-1-[[4-[5-(trifluoromethyl)-1,2,4-oxadiazol-3-yl]phenyl]methyl]pyrazole-4-carboxamide], for which the melting point was 132 to 142 °C. Also, the pest or weed control at 200 ppm in series [1] is ≥ 80%. The inhibition of growth at 20 ppm in series [2] was ≥ 80%.
Take `CCOC(=O)c1cnn(Cc2ccc(-c3noc(C(F)(F)F)n3)c(F)c2)c1` [Compound 1.252, ethyl 1-[[3-fluoro-4-[5-(trifluoromethyl)-1,2,4-oxadiazol-3-yl]phenyl]methyl]pyrazole-4-carboxylate]: the melting point was 131 to 135 °C.
For `N#Cc1ncnn1Cc1ccc(-c2noc(C(F)(F)F)n2)c(F)c1` [Compound 1.256, 2-[[3-fluoro-4-[5-(trifluoromethyl)-1,2,4-oxadiazol-3-yl]phenyl]methyl]-1,2,4-triazole-3-carbonitrile], the pest or weed control at 200 ppm in series [3], in series [1] and in series [4] was ≥ 80% throughout. The inhibition of growth at 20 ppm in series [2] is ≥ 80%.
In turn, `N#Cc1ncn(Cc2ccc(-c3noc(C(F)(F)F)n3)nc2)n1` [Compound 1.257, 1-[[6-[5-(trifluoromethyl)-1,2,4-oxadiazol-3-yl]-3-pyridyl]methyl]-1,2,4-triazole-3-carbonitrile] gave a melting point of 105 to 108 °C. Also, the inhibition of growth at 20 ppm in series [2] was ≥ 80%.
`CCN(CC)C(=O)c1cnn(Cc2ccc(-c3noc(C(F)(F)F)n3)cc2)c1` [Compound 1.259, N,N-diethyl-1-[[4-[5-(trifluoromethyl)-1,2,4-oxadiazol-3-yl]phenyl]methyl]pyrazole-4-carboxamide] came in with a melting point of 86 to 96 °C.
`CON(C)C(=O)c1cnn(Cc2ccc(-c3noc(C(F)(F)F)n3)cc2)c1` [Compound 1.260, N-methoxy-N-methyl-1-[[4-[5-(trifluoromethyl)-1,2,4-oxadiazol-3-yl]phenyl]methyl]pyrazole-4-carboxamide] returned a melting point of 102 to 112 °C.
Consider `CC(C)(C)OC(=O)c1cnn(Cc2ccc(-c3noc(C(F)(F)F)n3)cc2)c1` [Compound 1.262, ~{tert}-butyl 1-[[4-[5-(trifluoromethyl)-1,2,4-oxadiazol-3-yl]phenyl]methyl]pyrazole-4-carboxylate], for which the melting point was in the range of 81 to 91 °C. The pest or weed control at 200 ppm in series [1] is ≥ 80%. Besides, the inhibition of growth at 20 ppm in series [2] is ≥ 80%.
Regarding `CC(C)OC(=O)c1cnn(Cc2ccc(-c3noc(C(F)(F)F)n3)cc2)c1` [Compound 1.263, isopropyl 1-[[4-[5-(trifluoromethyl)-1,2,4-oxadiazol-3-yl]phenyl]methyl]pyrazole-4-carboxylate], the pest or weed control at 200 ppm in series [3], in series [1] and in series [4] was ≥ 80% in each case. The inhibition of growth at 20 ppm in series [2] was ≥ 80%.
The molecule `CCCOC(=O)c1cnn(Cc2ccc(-c3noc(C(F)(F)F)n3)cc2)c1` [Compound 1.264, propyl 1-[[4-[5-(trifluoromethyl)-1,2,4-oxadiazol-3-yl]phenyl]methyl]pyrazole-4-carboxylate] registered a melting point of 105 to 115 °C.
`CONC(=O)c1cnn(Cc2ccc(-c3noc(C(F)(F)F)n3)cc2)c1` [Compound 1.266, ~{N}-methoxy-1-[[4-[5-(trifluoromethyl)-1,2,4-oxadiazol-3-yl]phenyl]methyl]pyrazole-4-carboxamide] displayed a melting point of 128 to 138 °C.
The molecule `CCNC(=O)c1cnn(Cc2ccc(-c3noc(C(F)(F)F)n3)cc2)c1` [Compound 1.267, ~{N}-ethyl-1-[[4-[5-(trifluoromethyl)-1,2,4-oxadiazol-3-yl]phenyl]methyl]pyrazole-4-carboxamide] displayed a melting point of 166 to 176 °C.
Turning to `O=C(Nc1ccc(Cl)cc1)c1cn(Cc2ccc(-c3noc(C(F)(F)F)n3)cc2)nn1` [Compound 1.282, N-(4-chlorophenyl)-1-[[4-[5-(trifluoromethyl)-1,2,4-oxadiazol-3-yl]phenyl]methyl]triazole-4-carboxamide], the melting point lay within 233 to 235 °C. In addition, the pest or weed control at 200 ppm in series [1] is ≥ 80%.
Regarding `CON=Cc1cnn(Cc2ccc(-c3noc(C(F)(F)F)n3)cc2)c1` [Compound 1.285], the melting point was 88 to 98 °C.
For the molecule `CC(C)ON=Cc1cnn(Cc2ccc(-c3noc(C(F)(F)F)n3)cc2)c1` [Compound 1.288, N-isopropoxy-1-[1-[[4-[5-(trifluoromethyl)-1,2,4-oxadiazol-3-yl]phenyl]methyl]pyrazol-4-yl]methanimine], the pest or weed control at 200 ppm in series [3], in series [1] and in series [4] was ≥ 80% in each case. In addition, the inhibition of growth at 20 ppm in series [2] is ≥ 80%.
Molecule `FC(F)(F)c1nc(-c2ccc(Cn3cc(C=NOCc4ccccc4)cn3)cc2)no1` [Compound 1.289, N-benzyloxy-1-[1-[[4-[5-(trifluoromethyl)-1,2,4-oxadiazol-3-yl]phenyl]methyl]pyrazol-4-yl]methanimine] came in with a melting point of 75 to 85 °C. In series [1], the pest or weed control at 200 ppm was ≥ 80%. Besides, the inhibition of growth at 20 ppm in series [2] was ≥ 80%.
As to `Cc1cc(C)n(C(C)c2ccc(-c3noc(C(F)(F)F)n3)cc2)n1` (stereo not drawn) [Compound 1.303, 3-[4-[1-(3,5-dimethylpyrazol-1-yl)ethyl]phenyl]-5-(trifluoromethyl)-1,2,4-oxadiazole], the pest or weed control at 200 ppm in series [3], in series [1] and in series [4] was ≥ 80% throughout. Further, in series [2], the inhibition of growth at 20 ppm is ≥ 80%.
Regarding `CC1CN(Cc2ccc(-c3noc(C(F)(F)F)n3)cc2)CC(C)O1` (stereo not drawn) [Compound 1.306, 2,6-dimethyl-4-[[4-[5-(trifluoromethyl)-1,2,4-oxadiazol-3-yl]phenyl]methyl]morpholine], the pest or weed control at 200 ppm in series [3], in series [1] and in series [4] was ≥ 80% each time. The inhibition of growth at 20 ppm in series [2] is ≥ 80%.
Consider `CCOC(=O)c1cnn(CC(F)c2ccc(-c3noc(C(F)(F)F)n3)cc2)c1` (stereo not drawn) [Compound 1.311, ethyl 1-[2-fluoro-2-[4-[5-(trifluoromethyl)-1,2,4-oxadiazol-3-yl]phenyl]ethyl]pyrazole-4-carboxylate], for which the melting point was 145 to 147 °C.
As to `N#CC(c1ccc(-c2noc(C(F)(F)F)n2)cc1)N1CCOCC1` (stereo not drawn) [Compound 1.312, 2-morpholino-2-[4-[5-(trifluoromethyl)-1,2,4-oxadiazol-3-yl]phenyl]acetonitrile], the pest or weed control at 200 ppm in series [3], in series [1] and in series [4] was ≥ 80% each time. In addition, the inhibition of growth at 20 ppm in series [2] was ≥ 80%.
